Measurements from the NIST ThermoML archive (doi:10.1021/acs.jced.6b00733).
± gives the expanded uncertainty stated by the source.

What was measured:
[1] = Liquid, Ebulliometric method (Recirculating still)
[2] = refractive index (Na D-line) (dimensionless); details: 298.15 K; 101.3 kPa; Liquid; Standard Abbe refractometry

CC(C)CCO [3-methylbutan-1-ol]
vapor or sublimation pressure ([1]; 404.05 K): 101.33 ± 1 kPa | refractive index [2]: 1.4042 ± 0.0004

c1ccccc1 [benzene]
vapor or sublimation pressure ([1]; 353.27 K): 101.33 ± 1 kPa

CC(=O)OCCC(C)C [3-methylbutyl ethanoate]
vapor or sublimation pressure ([1]; 415.19 K): 101.33 ± 1 kPa | refractive index [2]: 1.3977 ± 0.0004

Cc1ccccc1 [toluene]
vapor or sublimation pressure ([1]; 383.82 K): 101.33 ± 1 kPa

C[S+](C)[O-] [dimethyl sulfoxide]
vapor or sublimation pressure ([1]; 463.93 K): 101.33 ± 1 kPa | refractive index [2]: 1.4779 ± 0.0004
